Laboratory results taken from ChEMBL document CHEMBL1201862, “PubChem BioAssay data set” (2004).
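Where inhibition never reached the appropriate level, the endpoint shown equals the highest concentration tested. Otherwise, values were interpolated linearly from a five-concentration, 48-hour dose response in 96-well plates. GI50 is the concentration that inhibits growth by half.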 The source made the active and inactive calls. Rule as the data show it: active = GI50 up to about 1.1 µM and inactive = higher.

How the values were obtained:
Experiment in all cases: DTP human tumour cell line panel, 48 h
[1] = tested on: SK-MEL-5
[2] = tested on: SN12C
[3] = tested on: COLO 205
[4] = tested on: NCI-H522
[5] = tested on: A549
[6] = tested on: HOP-92
[7] = tested on: OVCAR-5
[8] = tested on: SF-295
[9] = tested on: K562
[10] = tested on: SK-MEL-2
[11] = tested on: 786-0
[12] = tested on: A498
[13] = tested on: UACC-62
[14] = tested on: CCRF-CEM
[15] = tested on: IGROV-1
[16] = tested on: SNB-75
[17] = tested on: HCT-15
[18] = tested on: Malme-3M
[19] = tested on: ACHN

Compound	GI50 [1]	GI50 [2]	GI50 [3]	GI50 [4]	GI50 [5]	GI50 [6]	GI50 [7]	GI50 [8]	GI50 [9]	GI50 [10]	GI50 [11]	GI50 [12]	GI50 [13]	GI50 [14]	GI50 [15]	GI50 [16]	GI50 [17]	GI50 [18]	GI50 [19]
Cc1cc(N(CCC#N)CCC#N)ccc1/C(Sc1ccccc1)=C(\NC(=O)/C=C/c1ccccc1)C(=O)Sc1ccccc1	2.77 µM (inactive)	1.7 µM (inactive)	2.55 µM (inactive)	0.587 µM (active)	2.02 µM (inactive)	2.92 µM (inactive)	5.45 µM (inactive)	3.17 µM (inactive)	2.41 µM (inactive)	3.42 µM (inactive)	2.28 µM (inactive)	4.06 µM (inactive)	2.82 µM (inactive)	0.271 µM (active)	0.805 µM (active)	2.13 µM (inactive)	3.73 µM	8.28 µM (inactive)	4.75 µM (inactive)
C=C[Si](C)(C)COC(=O)/C(C#N)=C/C=C/c1ccccc1	> 100 µM (inactive)	> 100 µM (inactive)	> 100 µM (inactive)	46.3 µM (inactive)	> 100 µM (inactive)	> 100 µM (inactive)	> 100 µM (inactive)	> 100 µM (inactive)	59 µM (inactive)	> 100 µM (inactive)	> 100 µM (inactive)	–	88.7 µM (inactive)	32.3 µM (inactive)	> 100 µM (inactive)	34.6 µM (inactive)	78.2 µM	> 100 µM (inactive)	> 100 µM (inactive)
NNC(=O)N/N=C(/CC1(O)C(=O)Nc2ccc(Br)cc21)c1ccccc1 (stereo not given)	–	29.2 µM (inactive)	–	18.8 µM (inactive)	50 µM (inactive)	18.1 µM (inactive)	–	38.6 µM (inactive)	30.5 µM (inactive)	34.4 µM (inactive)	57.3 µM (inactive)	–	19.8 µM (inactive)	27.1 µM (inactive)	41.1 µM (inactive)	9.27 µM (inactive)	61.1 µM	33.9 µM (inactive)	24.3 µM (inactive)
O=C1C2=C(N[C@@H](c3ccccc3)[C@H](c3ccccc3)N2)C(=O)c2ccccc21	> 100 µM (inactive)	> 100 µM (inactive)	–	> 100 µM (inactive)	> 100 µM (inactive)	8.05 µM (inactive)	> 100 µM (inactive)	> 100 µM (inactive)	> 100 µM (inactive)	> 100 µM (inactive)	76.4 µM (inactive)	> 100 µM (inactive)	> 100 µM (inactive)	> 100 µM (inactive)	> 100 µM (inactive)	51.8 µM (inactive)	> 100 µM	> 100 µM (inactive)	> 100 µM (inactive)
CCOC(=O)Cn1c(=O)[nH]c(=O)c2c1ncn2Cc1ccccc1	> 100 µM (inactive)	> 100 µM (inactive)	> 100 µM (inactive)	> 100 µM (inactive)	> 100 µM (inactive)	> 100 µM (inactive)	> 100 µM (inactive)	> 100 µM (inactive)	> 100 µM (inactive)	> 100 µM (inactive)	> 100 µM (inactive)	> 100 µM (inactive)	> 100 µM (inactive)	> 100 µM (inactive)	> 100 µM (inactive)	> 100 µM (inactive)	> 100 µM	> 100 µM (inactive)	> 100 µM (inactive)
O=[N+]([O-])c1ccc(C2=Nn3cnnc3SC2)o1	16.4 µM (inactive)	16.5 µM (inactive)	–	> 10 µM (inactive)	20.6 µM (inactive)	26.1 µM (inactive)	22.2 µM (inactive)	18.3 µM (inactive)	21.5 µM (inactive)	20.9 µM (inactive)	17.3 µM (inactive)	16.3 µM (inactive)	> 10 µM (inactive)	23 µM (inactive)	> 10 µM (inactive)	25.3 µM (inactive)	12 µM	> 10 µM (inactive)	15.8 µM (inactive)
O/N=C1/C(=C/c2ccc(OCc3ccccc3)cc2)CCCC1C(NO)c1ccc(OCc2ccccc2)cc1 (stereo not given)	6.04 µM (inactive)	3.31 µM (inactive)	16.9 µM (inactive)	6.27 µM (inactive)	> 100 µM (inactive)	11.1 µM (inactive)	> 100 µM (inactive)	–	9.53 µM (inactive)	8.55 µM (inactive)	18.5 µM (inactive)	> 100 µM (inactive)	–	11.1 µM (inactive)	> 100 µM (inactive)	34 µM (inactive)	6.24 µM	46.5 µM (inactive)	17 µM (inactive)
O=C(Nc1ccc([N+](=O)[O-])cc1[N+](=O)[O-])C(=O)C(C(=O)c1ccc(Cl)c(Cl)c1)C1OC(=O)c2ccccc21 (stereo not given)	–	24.1 µM (inactive)	21.6 µM (inactive)	17.1 µM (inactive)	26.1 µM (inactive)	1.26 µM (inactive)	25.8 µM (inactive)	17.8 µM (inactive)	28.4 µM (inactive)	> 10 µM (inactive)	18.5 µM (inactive)	21.4 µM (inactive)	16.3 µM (inactive)	22.6 µM (inactive)	22.2 µM (inactive)	> 100 µM (inactive)	27.2 µM	26.3 µM (inactive)	23.3 µM (inactive)
CNC(=O)OCc1nc([S+](C)[O-])n(C)c1COC(=O)NC (stereo not given)	> 46.5 µM (inactive)	> 100 µM (inactive)	> 41.8 µM (inactive)	> 100 µM (inactive)	> 46.5 µM (inactive)	> 48.4 µM (inactive)	> 100 µM (inactive)	> 100 µM (inactive)	> 100 µM (inactive)	> 100 µM (inactive)	> 100 µM (inactive)	38.7 µM (inactive)	> 49.1 µM (inactive)	> 100 µM (inactive)	> 50.4 µM (inactive)	> 100 µM (inactive)	> 100 µM	> 100 µM (inactive)	> 24.2 µM (inactive)
CCc1ccccc1NC(=O)c1cccc([N+](=O)[O-])c1O	8.89 µM (inactive)	31 µM (inactive)	17.2 µM (inactive)	21 µM (inactive)	24.8 µM (inactive)	14.4 µM (inactive)	17.9 µM (inactive)	5.18 µM (inactive)	40.4 µM (inactive)	–	71.6 µM (inactive)	25.3 µM (inactive)	9.93 µM (inactive)	28.2 µM (inactive)	23 µM (inactive)	20.9 µM (inactive)	25.8 µM	24.4 µM (inactive)	18.1 µM (inactive)
CCCN(CCC)C(=O)Cc1c2n(c3ccccc13)Cc1ccccc1-2	29.6 µM (inactive)	> 100 µM (inactive)	95.3 µM (inactive)	40 µM (inactive)	27.9 µM (inactive)	5 µM (inactive)	–	33.8 µM (inactive)	> 100 µM (inactive)	94.4 µM (inactive)	57 µM (inactive)	–	21.1 µM (inactive)	> 100 µM (inactive)	–	6.62 µM (inactive)	> 100 µM	58.9 µM (inactive)	12 µM (inactive)
